Values quoted from earlier work in US20150024505A1, “APPARATUS FOR EVALUATING CARBONATE SOLUBILITY” (SAUDI ARABIAN OIL COMPANY, priority 2013, published 2015).

Settings: in water; 10,000 psig and 300° F. required to reach this level

Question: For O=C=O [CO2], which “limit of CO2 solubility” value is on record?
Answer: about 150 scf/stb of water
